Laboratory results as given in ChEMBL document CHEMBL5352436, “Triterpenoid pyrazines and pyridines - Synthesis, cytotoxicity, mechanism of action, preparation of prodrugs” (Eur J Med Chem, 2022).
Active and inactive are the calls of the source. The calls are words filed in the database; no cut-off is given here.

What was measured:
[1] = Stability in human plasma assessed as compound remaining at 2 uM measured at 120 mins by RF-MS analysis; format: ADME, cell-free; settings: read-out: Stability
[2] = Apparent permeability of the compound in MDCK-MDR1 cells at 10 uM incubated for 1 hr by RF-MS analysis; format: ADME, cell-based, Canis lupus familiaris; settings: dog
HCT-116 [3] = test: Cytotoxicity against human HCT-116 cells assessed as reduction in cell viability incubated for 72 hrs by MTS assay; format: functional, cell-based; settings: HCT-116, 72 h
[4] = Cytotoxicity against human MRC5 cells assessed as reduction in cell viability incubated for 72 hrs by MTS assay; format: toxicity, cell-based
[5] = Efflux ratio of apparent permeability across basolateral to apical side over apical to basolateral side in MDCK-MDR1 cells; format: ADME, cell-based, Canis lupus familiaris; settings: dog
[6] = Plasma protein binding in human at 10 uM by rapid equilibrium dialysis based RF-MS analysis; format: ADME, cell-free; settings: read-out: PB (converted)
[7] = Cytotoxicity against human K562-Tax cells assessed as reduction in cell viability incubated for 72 hrs by MTS assay; format: functional, cell-based
[8] = Chemical stability in PBS buffer at pH 7.4 assessed as compound remaining measured at 15 mins by RF-MS analysis; format: physicochemical; settings: read-out: Stability
[9] = Cytotoxicity against human HCT116-p53-null cells assessed as reduction in cell viability incubated for 72 hrs by MTS assay; format: functional, cell-based
K562 = test: Cytotoxicity against human K562 cells assessed as reduction in cell viability incubated for 72 hrs by MTS assay; format: functional, cell-based; settings: K562, 72 h
[10] = Chemical stability in PBS buffer at pH 7.4 assessed as compound remaining measured at 30 mins by RF-MS analysis; format: physicochemical; settings: read-out: Stability
A549 = test: Cytotoxicity against human A549 cells assessed as reduction in cell viability incubated for 72 hrs by MTS assay; format: functional, cell-based; settings: A549, 72 h
[11] = Stability in human plasma assessed as compound remaining at 2 uM measured at 30 mins by RF-MS analysis; format: ADME, cell-free; settings: read-out: Stability
[12] = Stability in human plasma assessed as compound remaining at 2 uM measured at 60 mins by RF-MS analysis; format: ADME, cell-free; settings: read-out: Stability
[13] = Stability in human liver microsomes assessed as compound remaining at 2 uM measured at 15 mins in presence of NADPH by RF-MS analysis; format: ADME, Microsome; settings: read-out: Stability
[14] = Apparent permeability of the compound in MDCK-MDR1 cells assessed as drug recovery at 10 uM incubated for 1 hr by RF-MS analysis; format: ADME, cell-based, Canis lupus familiaris; settings: dog, read-out: Drug recovery
CEM-DNR = test: Cytotoxicity against human CEM-DNR cells assessed as reduction in cell viability incubated for 72 hrs by MTS assay; format: functional, cell-based
CCRF-CEM = test: Cytotoxicity against human CCRF-CEM cells assessed as reduction in cell viability incubated for 72 hrs by MTS assay; format: functional, cell-based
[15] = Cytotoxicity against human BJ cells assessed as reduction in cell viability incubated for 72 hrs by MTS assay; format: toxicity, cell-based
[16] = Stability in human liver microsomes assessed as compound remaining at 2 uM measured at 60 mins in presence of NADPH by RF-MS analysis; format: ADME, Microsome; settings: read-out: Stability
[17] = Stability in human plasma assessed as compound remaining at 2 uM measured at 15 mins by RF-MS analysis; format: ADME, cell-free; settings: read-out: Stability
[18] = Chemical stability in PBS buffer at pH 7.4 assessed as compound remaining measured at 120 mins by RF-MS analysis; format: physicochemical; settings: read-out: Stability
[19] = Chemical stability in PBS buffer at pH 7.4 assessed as compound remaining measured at 60 mins by RF-MS analysis; format: physicochemical; settings: read-out: Stability
U2OS = test: Cytotoxicity against human U2OS cells assessed as reduction in cell viability incubated for 72 hrs by MTS assay; format: functional, cell-based
[20] = Stability in human liver microsomes assessed as compound remaining at 2 uM measured at 30 mins in presence of NADPH by RF-MS analysis; format: ADME, Microsome; settings: read-out: Stability
HCT-116 [21] = test: Antitumor activity in human HCT-116 cells cultured as spheroids assessed as inhibition of cell growth at 10 uM incubated for 3 days; format: functional; set-up: scale not given: the % may be the effect or the level left; settings: time 3 day
HeLa = test: Antitumor activity in human HeLa cells cultured as spheroids assessed as inhibition of spheroid opening at 1 uM incubated for 3 days; format: functional, cell-based; settings: time 3.0 day

Structure (SMILES)	remaining at 2 h, 2 µM [1]	Papp at 1 h, 10 µM [2]	IC50 (HCT-116 [3])	IC50 at 72 h [4]	efflux ratio [5]	fraction unbound at 10 µM [6]	IC50 [7]	remaining at 0.25 h [8]	IC50 [9]	IC50 (K562)	remaining at 0.5 h [10]	IC50 (A549)	remaining at 0.5 h, 2 µM [11]	remaining at 1 h, 2 µM [12]	remaining at 0.25 h, 2 µM [13]	recovery at 1 h, 10 µM [14]	IC50 (CEM-DNR)	IC50 (CCRF-CEM)	IC50 at 72 h [15]	remaining at 1 h, 2 µM [16]	also measured
C=C(C)[C@@H]1CC[C@]2(C(=O)OCc3cn([C@H]4O[C@H](COC(C)=O)[C@@H](OC(C)=O)[C@H](OC(C)=O)[C@H]4OC(C)=O)nn3)CC[C@]3(C)[C@H](CC[C@@H]4[C@@]5(C)CC[C@H](O)C(C)(C)[C@@H]5CC[C@]43C)[C@@H]12	83.4%	0.28 ×10⁻⁶ cm/s	> 50 µM	> 50 µM	5.61	0.0044	> 50 µM	98.5%	> 50 µM	> 50 µM	92.7%	> 50 µM	92.2%	87.8%	99%	77%	> 50 µM	> 50 µM	> 50 µM	97%	remaining at 0.25 h, 2 µM [17]: 94.3%; remaining at 2 h [18]: 77.9%; remaining at 1 h [19]: 82.3%; IC50 (U2OS): > 50 µM; remaining at 0.5 h, 2 µM [20]: 98.8%
C=C(C=O)[C@@H]1CC[C@]2(C(=O)OCc3cn([C@H]4O[C@H](COC(C)=O)[C@@H](OC(C)=O)[C@H](OC(C)=O)[C@H]4OC(C)=O)nn3)CC[C@]3(C)[C@H](CC[C@@H]4[C@@]5(C)CC[C@H](O)C(C)(C)[C@@H]5CC[C@]43C)[C@@H]12	82.3%	0.32 ×10⁻⁶ cm/s	1.6 µM	1.7 µM	3.77	0.0015	1.6 µM	97.1%	1.7 µM	1.4 µM	92.5%	1.8 µM	88.7%	87%	95.6%	103%	1.6 µM	0.6 µM	1.8 µM	66.6%	Activity (HCT-116 [21]): 100%; remaining at 0.25 h, 2 µM [17]: 93.9%; Activity (HeLa): Active; remaining at 2 h [18]: 83.8%; remaining at 1 h [19]: 89.2%; IC50 (U2OS): 1.7 µM; remaining at 0.5 h, 2 µM [20]: 82.7%
